ChEMBL document CHEMBL4229448 (Bioorg Med Chem Lett, 2018)
Calls of active or inactive are those of the source. The rule behind the calls is not given here.

Experiments:
[1] = Effective permeability of the compound at 100 ug/ml after 16 hrs by PAMPA
[2] = molecular target: T1, Cholinesterase (Equus caballus, UniProt P81908)
Description: Inhibition of horse serum BuChE using acetylthiocholine as substrate after 60 mins by FRET assay

[3] = Metabolic stability in human plasma assessed as compound remaining measured after 120 mins; type: ADME, cell-free; conditions: read-out: Stability
[4] = molecular target: T2, Acetylcholinesterase (Homo sapiens, UniProt P22303); test: Inhibition of human recombinant AChE at 0.05 uM using acetylthiocholine as substrate by UV-visible spectrophotometric Ellman's method
[5] = molecular target: T1, Cholinesterase; test: Inhibition of horse serum BuChE using acetylthiocholine as substrate by UV-visible spectrophotometric Ellman's method
[6] = molecular target: T2, Acetylcholinesterase; test: Inhibition of human recombinant AChE using acetylthiocholine as substrate by UV-visible spectrophotometric Ellman's method
[7] = molecular target: Cholinesterase (Equus caballus) (UniProt P81908); test: Inhibition of horse serum BuChE at 0.1 uM using acetylthiocholine as substrate by UV-visible spectrophotometric Ellman's method
[8] = Half life in pH 6.5 fasted state simulated intestinal fluid; type: ADME
[9] = Half life in rat liver microsomes; type: ADME, microsome
[10] = system: SH-SY5Y; test: Cytotoxicity against human SH-SY5Y cells assessed as decrease in cell viability after 48 hrs by MTT assay; type: cell-based

Sequence of Cholinesterase (Equus caballus) (P81908 whole entry): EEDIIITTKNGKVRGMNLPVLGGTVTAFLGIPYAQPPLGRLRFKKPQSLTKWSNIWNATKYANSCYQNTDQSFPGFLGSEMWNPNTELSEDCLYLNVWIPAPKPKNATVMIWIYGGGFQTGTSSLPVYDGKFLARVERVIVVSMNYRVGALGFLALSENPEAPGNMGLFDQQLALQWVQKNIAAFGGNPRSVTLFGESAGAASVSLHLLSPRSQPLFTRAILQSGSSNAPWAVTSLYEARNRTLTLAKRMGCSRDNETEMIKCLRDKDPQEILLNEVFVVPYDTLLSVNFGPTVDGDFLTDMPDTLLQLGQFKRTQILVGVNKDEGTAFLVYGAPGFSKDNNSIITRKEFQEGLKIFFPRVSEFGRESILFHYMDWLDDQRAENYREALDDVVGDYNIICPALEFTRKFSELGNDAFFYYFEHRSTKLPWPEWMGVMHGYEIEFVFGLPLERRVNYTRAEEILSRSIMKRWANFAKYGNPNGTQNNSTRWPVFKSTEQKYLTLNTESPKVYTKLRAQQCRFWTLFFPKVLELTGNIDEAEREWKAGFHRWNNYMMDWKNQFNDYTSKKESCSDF
T1 sequence (P81908 whole entry): as above
T2 sequence (P22303 whole entry): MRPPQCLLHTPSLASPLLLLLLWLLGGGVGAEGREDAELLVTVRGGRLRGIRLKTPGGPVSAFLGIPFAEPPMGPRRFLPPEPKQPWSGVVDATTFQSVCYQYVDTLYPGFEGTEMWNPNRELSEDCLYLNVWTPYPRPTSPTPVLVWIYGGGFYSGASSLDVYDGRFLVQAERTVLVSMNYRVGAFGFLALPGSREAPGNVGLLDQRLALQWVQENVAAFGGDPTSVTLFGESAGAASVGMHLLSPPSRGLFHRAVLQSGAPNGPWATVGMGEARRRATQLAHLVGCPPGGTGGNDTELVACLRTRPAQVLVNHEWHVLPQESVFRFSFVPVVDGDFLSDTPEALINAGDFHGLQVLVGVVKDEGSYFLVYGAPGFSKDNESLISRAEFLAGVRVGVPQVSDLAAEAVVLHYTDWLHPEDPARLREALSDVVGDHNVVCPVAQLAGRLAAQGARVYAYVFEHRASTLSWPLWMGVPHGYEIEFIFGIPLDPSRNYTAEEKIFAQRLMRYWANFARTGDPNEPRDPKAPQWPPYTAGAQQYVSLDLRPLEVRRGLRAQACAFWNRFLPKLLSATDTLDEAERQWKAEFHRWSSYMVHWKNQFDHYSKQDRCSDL

| SMILES | Papp at 16 h, 100 ug/ml [1] | IC50 [2] | remaining at 2 h [3] | inhibition [4] | IC50 [5] | IC50 [6] | inhibition [7] | half-life [8] | half-life [9] | IC50 [10] |
| --- | --- | --- | --- | --- | --- | --- | --- | --- | --- | --- |
| COc1ccc2c(c1)C/C(=C/c1ccccc1-c1ccccc1)C2=O | 26.6 ×10⁻⁶ cm/s | 3310 nM | 98.6% | Active | 125 nM | 29.8 nM | Active | 9.85 h | 4.05 h | > 50000 nM |
| C[C@@H](NC(=O)c1cc(C(=O)N[C@@H](Cc2ccccc2)[C@H](O)CNC2CC2)cc(N(C)S(C)(=O)=O)c1)c1ccccc1 | – | – | – | – | 14.6 nM | – | – | – | – | – |
| COc1ccc2c(c1)C/C(=C/c1ccccc1-c1ccc3nc(N)ccc3c1)C2=O | 24.3 ×10⁻⁶ cm/s | 1780 nM | 96.1% | Active | 13.1 nM | 14.7 nM | Active | 9.63 h | 3.78 h | > 50000 nM |
| COc1ccc2c(c1)C/C(=C/C1CCN(Cc3ccccc3)CC1)C2=O | – | – | – | – | 341 nM | 44.1 nM | Active | – | – | – |
| COc1ccc2c(c1)C/C(=C/c1ccccc1-c1ccc3ccccc3c1)C2=O | 28.5 ×10⁻⁶ cm/s | 3970 nM | 99.2% | Active | 101 nM | 32.4 nM | Active | 10.2 h | 4.65 h | > 50000 nM |
| COc1ccc(-c2ccccc2/C=C2/Cc3cc(OC)ccc3C2=O)cc1 | 26.2 ×10⁻⁶ cm/s | 2150 nM | 97.5% | Active | 99.4 nM | 21.2 nM | Active | 8.57 h | 3.58 h | > 50000 nM |
| CC(C)[N+](C)(CCOC(=O)C1c2ccccc2Oc2ccccc21)C(C)C [PROPANTHELINE] | – | – | 2.83% | – | – | – | – | – | – | – |
| CC[C@H]1OC(=O)[C@H](C)[C@@H](O[C@H]2C[C@@](C)(OC)[C@@H](O)[C@H](C)O2)[C@H](C)[C@@H](O[C@@H]2O[C@H](C)C[C@H](N(C)C)[C@H]2O)[C@](C)(O)C[C@@H](C)C(=O)[C@H](C)[C@@H](O)[C@]1(C)O [ERYTHROMYCIN] | – | – | – | – | – | – | – | 8.25 h | – | – |
